# Test results from PMC8694051 (Proceedings of the National Academy of Sciences of the …, 2021).
# Structures can show the parent of a compound that is named as a salt.
# Tests used:
# Thrombin = Thrombin (Homo sapiens, UniProt P00734); test: Thrombin enzyme inhibition (published assays); format: biochemical
# Hepsin = Hepsin (Homo sapiens, UniProt P05981); test: Hepsin enzyme inhibition (published assays); format: biochemical
# HGFA = target: T1, HGFA (Homo sapiens, UniProt Q04756); test: HGFA enzyme inhibition (published assays); format: biochemical
# T1 sequence (Q04756 373-655): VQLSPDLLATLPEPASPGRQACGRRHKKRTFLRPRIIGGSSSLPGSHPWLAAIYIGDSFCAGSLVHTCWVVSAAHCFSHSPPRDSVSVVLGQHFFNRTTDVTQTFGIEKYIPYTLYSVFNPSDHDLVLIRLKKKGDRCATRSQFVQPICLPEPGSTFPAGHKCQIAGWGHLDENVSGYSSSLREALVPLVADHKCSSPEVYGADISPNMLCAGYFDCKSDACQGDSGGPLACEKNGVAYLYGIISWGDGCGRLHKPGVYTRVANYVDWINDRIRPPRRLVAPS
# Matriptase = target: T2, Matriptase (Homo sapiens, UniProt Q9Y5Y6); test: Matriptase enzyme inhibition (published assays); format: biochemical
# T2 sequence (Q9Y5Y6 1-855): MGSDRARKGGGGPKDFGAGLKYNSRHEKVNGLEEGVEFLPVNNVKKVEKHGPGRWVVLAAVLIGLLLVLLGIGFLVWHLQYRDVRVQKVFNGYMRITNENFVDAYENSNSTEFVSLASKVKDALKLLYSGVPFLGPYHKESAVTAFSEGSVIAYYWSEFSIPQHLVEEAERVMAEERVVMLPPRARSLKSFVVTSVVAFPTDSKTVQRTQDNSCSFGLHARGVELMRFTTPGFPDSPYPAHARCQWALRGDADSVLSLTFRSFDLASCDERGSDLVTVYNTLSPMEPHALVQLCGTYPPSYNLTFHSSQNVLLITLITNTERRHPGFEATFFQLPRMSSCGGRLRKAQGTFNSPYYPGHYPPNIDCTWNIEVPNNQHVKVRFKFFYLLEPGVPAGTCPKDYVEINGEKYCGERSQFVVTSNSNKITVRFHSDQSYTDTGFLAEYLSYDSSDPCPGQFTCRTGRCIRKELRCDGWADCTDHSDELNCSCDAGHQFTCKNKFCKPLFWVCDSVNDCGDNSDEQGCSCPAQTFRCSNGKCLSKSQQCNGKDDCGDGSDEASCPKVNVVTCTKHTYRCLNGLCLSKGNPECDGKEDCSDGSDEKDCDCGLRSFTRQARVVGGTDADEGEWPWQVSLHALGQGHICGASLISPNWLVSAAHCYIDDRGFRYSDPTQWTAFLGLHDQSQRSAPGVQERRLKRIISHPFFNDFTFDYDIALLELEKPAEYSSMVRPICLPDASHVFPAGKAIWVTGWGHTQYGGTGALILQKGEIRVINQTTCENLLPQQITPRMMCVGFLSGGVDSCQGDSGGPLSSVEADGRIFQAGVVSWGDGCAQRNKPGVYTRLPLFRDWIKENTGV
# Factor Xa = Factor Xa (Homo sapiens, UniProt P00742); test: Factor Xa enzyme inhibition (published assays); format: biochemical
# [1] = test system: VSV-SARS-CoV-2-Spike protein Pseudotype virus; test: microbe, parasite or virus in culture; format: cell-based; details: read-out: VSV-SARS-CoV-2 Calu-3 EC50
# Cathepsin B = Cathepsin B (Homo sapiens, UniProt P07858); test: Protease profiling panel, 10-dose IC50; format: biochemical
# Cathepsin C = Cathepsin C (Homo sapiens, UniProt P53634); test: Protease profiling panel, 10-dose IC50; format: biochemical
# Cathepsin L = Cathepsin L (Homo sapiens, UniProt P07711); test: Protease profiling panel, 10-dose IC50; format: biochemical
# Cathepsin S = Cathepsin S (Homo sapiens, UniProt P25774); test: Protease profiling panel, 10-dose IC50; format: biochemical
# Cathepsin H = Cathepsin H (Homo sapiens, UniProt P09668); test: Protease profiling panel, 10-dose IC50; format: biochemical
# Cathepsin V = Cathepsin V (Homo sapiens, UniProt O60911); test: Protease profiling panel, 10-dose IC50; format: biochemical
# Papain = Papain (Carica papaya, UniProt P00784); test: Protease profiling panel, 10-dose IC50; format: biochemical
# Calpain 1 = Calpain 1 (Homo sapiens, UniProt P07384); test: Protease profiling panel, 10-dose IC50; format: biochemical
# Kallikrein 7 = Kallikrein 7 (Homo sapiens, UniProt P49862); test: Protease profiling panel, 10-dose IC50; format: biochemical
# Tryptase g1 = Tryptase g1 (Homo sapiens, UniProt Q9NRR2); test: Protease profiling panel, 10-dose IC50; format: biochemical; details: values lower than 1.02E-09 M estimated from best curve
# FXa = FXa (Homo sapiens, UniProt P00742); test: Protease profiling panel, 10-dose IC50; format: biochemical
# Matriptase 2 = Matriptase 2 (Homo sapiens, UniProt Q8IU80); test: Protease profiling panel, 10-dose IC50; format: biochemical; details: values lower than 1.02E-09 M estimated from best curve
# Plasmin = Plasmin (Homo sapiens, UniProt P00747); test: Protease profiling panel, 10-dose IC50; format: biochemical
# Tryptase b2 = Tryptase b2 (Homo sapiens, UniProt P20231); test: Protease profiling panel, 10-dose IC50; format: biochemical; details: values lower than 1.02E-09 M estimated from best curve
# Thrombin a = Thrombin a (Homo sapiens, UniProt P00734); test: Protease profiling panel, 10-dose IC50; format: biochemical
# Kallikrein 13 = Kallikrein 13 (Homo sapiens, UniProt Q9UKR3); test: Protease profiling panel, 10-dose IC50; format: biochemical
# Trypsin = Trypsin (Bos taurus, UniProt P00760); test: Protease profiling panel, 10-dose IC50; format: biochemical; details: values lower than 1.02E-09 M estimated from best curve
# Plasma Kallikrein = Plasma Kallikrein (Homo sapiens, UniProt P03952); test: Protease profiling panel, 10-dose IC50; format: biochemical
# Kallikrein 14 = Kallikrein 14 (Homo sapiens, UniProt Q9P0G3); test: Protease profiling panel, 10-dose IC50; format: biochemical
# Urokinase = Urokinase (Homo sapiens, UniProt P00749); test: Protease profiling panel, 10-dose IC50; format: biochemical
# Kallikrein 5 = Kallikrein 5 (Homo sapiens, UniProt Q9Y337); test: Protease profiling panel, 10-dose IC50; format: biochemical
# Kallikrein 12 = Kallikrein 12 (Homo sapiens, UniProt Q9UKR0); test: Protease profiling panel, 10-dose IC50; format: biochemical
# Proteinase A = format: biochemical
# Kallikrein 1 = Kallikrein 1 (Homo sapiens, UniProt P06870); test: Protease profiling panel, 10-dose IC50; format: biochemical
# wild-type SARS-CoV-2 = test: microbe, parasite or virus in culture; format: cell-based; details: Severe acute respiratory syndrome coronavirus 2, Calu-3, 72 h, read-out: SARS-CoV-2 Wild-type Calu-3 IC50 (nM)
# TMPRSS2 protease domain = TMPRSS2 protease domain (Homo sapiens, UniProt O15393); format: biochemical
# Sequence of TMPRSS2 protease domain (O15393 256-492): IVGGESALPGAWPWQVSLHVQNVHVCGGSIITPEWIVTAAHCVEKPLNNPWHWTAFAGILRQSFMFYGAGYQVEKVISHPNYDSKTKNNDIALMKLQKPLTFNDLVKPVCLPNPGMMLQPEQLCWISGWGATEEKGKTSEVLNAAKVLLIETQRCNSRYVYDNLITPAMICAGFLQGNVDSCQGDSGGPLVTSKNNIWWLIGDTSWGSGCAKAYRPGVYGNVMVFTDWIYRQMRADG
# Sequence of Factor Xa (P00742 235-488 limits assumed): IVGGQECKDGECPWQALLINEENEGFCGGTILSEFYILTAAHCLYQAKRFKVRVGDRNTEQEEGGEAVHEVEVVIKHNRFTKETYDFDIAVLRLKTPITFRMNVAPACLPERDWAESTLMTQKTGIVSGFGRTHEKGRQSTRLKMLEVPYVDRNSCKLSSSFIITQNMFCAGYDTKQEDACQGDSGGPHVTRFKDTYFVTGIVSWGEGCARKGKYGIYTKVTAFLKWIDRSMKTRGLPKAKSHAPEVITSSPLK
# Sequence of Factor Xa (P00742 41-179 partner limits assumed): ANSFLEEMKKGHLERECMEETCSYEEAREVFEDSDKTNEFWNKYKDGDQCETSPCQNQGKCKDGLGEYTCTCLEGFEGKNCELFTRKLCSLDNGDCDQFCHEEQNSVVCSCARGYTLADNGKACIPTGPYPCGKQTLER
# Sequence of Hepsin (P05981 whole entry): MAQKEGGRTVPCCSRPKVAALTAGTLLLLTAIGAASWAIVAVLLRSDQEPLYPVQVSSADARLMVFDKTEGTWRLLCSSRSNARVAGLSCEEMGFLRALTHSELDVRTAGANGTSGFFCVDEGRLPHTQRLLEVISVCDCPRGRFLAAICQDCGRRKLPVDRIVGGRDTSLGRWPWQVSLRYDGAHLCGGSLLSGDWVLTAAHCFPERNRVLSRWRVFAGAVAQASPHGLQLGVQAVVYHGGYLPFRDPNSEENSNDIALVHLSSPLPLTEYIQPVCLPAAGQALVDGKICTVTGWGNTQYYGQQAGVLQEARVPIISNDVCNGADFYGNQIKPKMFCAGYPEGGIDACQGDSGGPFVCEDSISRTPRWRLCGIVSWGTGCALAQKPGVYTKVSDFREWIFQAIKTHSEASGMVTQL
# Sequence of FXa (P00742 235-488 limits assumed): as the sequence (P00742 235-488 limits assumed) above
# Sequence of FXa (P00742 41-179 partner limits assumed): as the sequence (P00742 41-179 partner limits assumed) above
# Sequence of Kallikrein 5 (Q9Y337 23-293, species assumed): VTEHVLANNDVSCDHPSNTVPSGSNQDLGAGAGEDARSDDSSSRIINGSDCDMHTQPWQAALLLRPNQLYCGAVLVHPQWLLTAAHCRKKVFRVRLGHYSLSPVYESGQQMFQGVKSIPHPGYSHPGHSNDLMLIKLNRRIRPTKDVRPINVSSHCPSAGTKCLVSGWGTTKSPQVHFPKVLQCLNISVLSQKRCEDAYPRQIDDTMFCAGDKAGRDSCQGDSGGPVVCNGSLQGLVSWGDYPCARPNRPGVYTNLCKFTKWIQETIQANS
# Sequence of Cathepsin L (P07711 114-333, species assumed): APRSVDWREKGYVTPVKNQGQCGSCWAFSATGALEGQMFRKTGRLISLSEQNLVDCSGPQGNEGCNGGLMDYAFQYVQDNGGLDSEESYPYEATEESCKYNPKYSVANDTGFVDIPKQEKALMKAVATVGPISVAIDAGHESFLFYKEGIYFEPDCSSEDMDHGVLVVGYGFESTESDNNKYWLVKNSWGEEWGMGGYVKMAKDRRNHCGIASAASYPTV
# Sequence of Plasmin (P00747 581-810 limits assumed, species assumed): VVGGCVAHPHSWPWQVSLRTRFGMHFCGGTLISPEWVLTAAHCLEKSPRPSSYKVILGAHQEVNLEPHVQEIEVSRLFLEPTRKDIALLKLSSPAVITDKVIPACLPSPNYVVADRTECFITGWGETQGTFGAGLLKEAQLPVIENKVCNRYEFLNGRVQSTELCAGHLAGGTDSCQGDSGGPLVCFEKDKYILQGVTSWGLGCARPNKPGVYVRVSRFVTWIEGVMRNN
# Sequence of Plasmin (P00747 97-580 partner limits assumed, species assumed): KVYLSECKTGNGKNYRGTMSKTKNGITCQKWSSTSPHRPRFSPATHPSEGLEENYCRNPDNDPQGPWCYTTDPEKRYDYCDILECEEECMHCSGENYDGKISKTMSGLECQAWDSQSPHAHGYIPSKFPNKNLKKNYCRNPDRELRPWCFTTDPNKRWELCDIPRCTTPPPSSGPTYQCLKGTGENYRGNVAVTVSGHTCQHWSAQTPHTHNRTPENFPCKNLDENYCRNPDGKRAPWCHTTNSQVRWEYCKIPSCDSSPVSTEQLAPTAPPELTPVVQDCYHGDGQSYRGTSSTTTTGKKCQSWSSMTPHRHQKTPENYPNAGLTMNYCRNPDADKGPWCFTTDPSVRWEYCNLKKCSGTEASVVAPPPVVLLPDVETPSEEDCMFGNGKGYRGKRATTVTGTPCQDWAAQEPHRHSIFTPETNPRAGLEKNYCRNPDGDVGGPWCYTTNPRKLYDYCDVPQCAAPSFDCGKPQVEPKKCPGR
# Sequence of Kallikrein 12 (Q9UKR0 18-248, species assumed): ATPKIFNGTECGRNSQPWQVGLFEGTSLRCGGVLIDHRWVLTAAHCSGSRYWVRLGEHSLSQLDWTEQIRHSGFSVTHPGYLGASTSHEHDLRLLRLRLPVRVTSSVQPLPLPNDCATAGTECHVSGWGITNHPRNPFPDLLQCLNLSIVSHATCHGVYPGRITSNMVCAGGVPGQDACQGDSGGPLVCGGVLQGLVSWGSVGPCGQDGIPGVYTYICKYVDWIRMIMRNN
# Sequence of Tryptase b2 (P20231 31-275): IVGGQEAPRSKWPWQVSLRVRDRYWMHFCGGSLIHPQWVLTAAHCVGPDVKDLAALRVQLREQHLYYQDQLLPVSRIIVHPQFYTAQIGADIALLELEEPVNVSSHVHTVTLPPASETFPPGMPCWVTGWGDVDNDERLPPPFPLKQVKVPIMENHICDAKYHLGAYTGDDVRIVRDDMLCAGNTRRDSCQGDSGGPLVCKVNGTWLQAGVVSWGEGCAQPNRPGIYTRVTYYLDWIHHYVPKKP
# Sequence of Papain (P00784 134-345): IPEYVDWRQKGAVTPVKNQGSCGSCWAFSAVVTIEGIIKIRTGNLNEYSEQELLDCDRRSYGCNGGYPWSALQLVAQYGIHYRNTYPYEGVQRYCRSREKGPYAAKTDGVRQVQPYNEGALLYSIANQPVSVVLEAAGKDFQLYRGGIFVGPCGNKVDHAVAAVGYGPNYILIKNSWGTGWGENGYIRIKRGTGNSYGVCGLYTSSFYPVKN
# Sequence of Kallikrein 7 (P49862 30-253, species assumed): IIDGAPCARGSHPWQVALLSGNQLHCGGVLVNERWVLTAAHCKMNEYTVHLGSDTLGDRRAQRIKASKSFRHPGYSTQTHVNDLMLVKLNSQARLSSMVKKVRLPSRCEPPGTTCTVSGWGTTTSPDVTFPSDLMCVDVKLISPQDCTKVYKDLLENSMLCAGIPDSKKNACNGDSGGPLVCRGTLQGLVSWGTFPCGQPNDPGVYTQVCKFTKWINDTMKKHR
# Sequence of Cathepsin V (O60911 114-334, species assumed): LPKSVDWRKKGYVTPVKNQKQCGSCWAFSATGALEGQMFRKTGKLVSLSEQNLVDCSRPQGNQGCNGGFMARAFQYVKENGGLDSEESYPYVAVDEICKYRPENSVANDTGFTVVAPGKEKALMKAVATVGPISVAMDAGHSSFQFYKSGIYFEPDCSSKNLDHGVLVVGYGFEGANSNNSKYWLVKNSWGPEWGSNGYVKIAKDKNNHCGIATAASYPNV
# Sequence of Cathepsin H (P09668 98-335, species assumed): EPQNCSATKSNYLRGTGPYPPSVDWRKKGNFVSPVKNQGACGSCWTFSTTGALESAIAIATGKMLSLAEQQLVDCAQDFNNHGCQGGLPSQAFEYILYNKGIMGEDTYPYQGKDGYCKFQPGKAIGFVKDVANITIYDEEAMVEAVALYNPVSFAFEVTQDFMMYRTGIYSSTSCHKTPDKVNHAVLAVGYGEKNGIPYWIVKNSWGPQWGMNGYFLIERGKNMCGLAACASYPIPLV
# Sequence of Plasma Kallikrein (P03952 391-638 limits assumed, species assumed): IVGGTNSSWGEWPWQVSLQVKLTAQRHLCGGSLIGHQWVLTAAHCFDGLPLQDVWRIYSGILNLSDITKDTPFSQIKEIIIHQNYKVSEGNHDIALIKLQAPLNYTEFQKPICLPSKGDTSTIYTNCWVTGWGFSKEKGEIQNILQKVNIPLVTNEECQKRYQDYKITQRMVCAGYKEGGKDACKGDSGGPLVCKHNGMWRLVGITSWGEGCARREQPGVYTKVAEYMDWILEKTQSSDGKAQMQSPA
# Sequence of Plasma Kallikrein (P03952 20-390 partner limits assumed, species assumed): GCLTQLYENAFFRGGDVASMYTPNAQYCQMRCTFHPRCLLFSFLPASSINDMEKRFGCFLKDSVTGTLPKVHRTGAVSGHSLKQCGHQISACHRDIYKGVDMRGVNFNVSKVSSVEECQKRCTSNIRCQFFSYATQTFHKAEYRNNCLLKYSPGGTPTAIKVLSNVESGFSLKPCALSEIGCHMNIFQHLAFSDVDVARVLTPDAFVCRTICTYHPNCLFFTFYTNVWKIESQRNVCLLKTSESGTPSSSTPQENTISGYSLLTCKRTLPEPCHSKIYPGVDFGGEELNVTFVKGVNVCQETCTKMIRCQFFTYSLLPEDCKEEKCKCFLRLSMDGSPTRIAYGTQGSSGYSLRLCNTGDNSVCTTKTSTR
# Sequence of Kallikrein 1 (P06870 25-262, species assumed): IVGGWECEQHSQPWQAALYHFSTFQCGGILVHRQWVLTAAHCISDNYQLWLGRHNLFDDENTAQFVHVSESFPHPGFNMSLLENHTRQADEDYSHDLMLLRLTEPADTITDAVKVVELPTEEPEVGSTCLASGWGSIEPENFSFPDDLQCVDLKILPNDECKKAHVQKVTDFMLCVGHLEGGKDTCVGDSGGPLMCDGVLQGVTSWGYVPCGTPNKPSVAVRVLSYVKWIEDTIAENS
Compound,IC50 (Thrombin) [nM],IC50 (Hepsin) [nM],IC50 (HGFA) [nM],IC50 (Matriptase) [nM],IC50 (Factor Xa) [nM],also measured
"CC(=O)NC(CO)C(=O)NC(CCCCN)C(=O)NC(CC(C)C)C(=O)NC(CCCNC(=N)N)C(=O)c1nc2ccccc2s1 (stereo not shown) [Compound 3, Ac-SKLR-kbt]",> 20000,0.32,66,6.1,3800,–
"CC(=O)N[C@@H](Cc1c[nH]c2ccccc12)C(=O)N[C@@H](Cc1ccccc1)C(=O)N[C@@H](CCCNC(=N)N)C(=O)c1nc2ccccc2s1 [Compound 8, Ac-WFR-kbt]",> 20000,7.6,329,5.7,22,–
"CC(=O)N[C@@H](CO)C(=O)N[C@@H](CCCCN)C(=O)N[C@@H](Cc1ccccc1)C(=O)N[C@@H](CCCNC(=N)N)C(=O)c1nccs1 [Compound 9, Ac-SKFR-kt]",> 20000,17,114,6.1,1060,–
"CC(=O)N[C@@H](CCCCN)C(=O)N[C@@H](CCC(N)=O)C(=O)N[C@@H](Cc1ccccc1)C(=O)N[C@@H](CCCNC(=N)N)C(=O)c1nccs1 [Compound 10, Ac-KQFR-kt]",> 20000,1.2,116,1.4,158,–
"CC(=O)N[C@@H](CO)C(=O)N[C@@H](CCC(N)=O)C(=O)N[C@@H](CC(C)C)C(=O)N[C@@H](CCCNC(=N)N)C(=O)c1nccs1 [Compound 11, Ac-SQLR-kt]",–,0.68,364,18,–,–
"CC(=O)N[C@@H](Cc1ccccc1)C(=O)N[C@@H](CC(C)C)C(=O)N[C@@H](Cc1ccccc1)C(=O)N[C@@H](CCCNC(=N)N)C(=O)c1nc2ccccc2s1 [Compound 12, Ac-FLFR-kbt]",> 20000,2.9,228,7.2,26,–
"CC(=O)N[C@H](Cc1c[nH]c2ccccc12)C(=O)N[C@@H](Cc1ccccc1)C(=O)N[C@@H](CCCNC(=N)N)C(=O)c1nc2ccccc2s1 [Compound 13, Ac-dWFR-kbt]",3700,1.1,27,2.6,98,EC50 [1]: 32 nM
"CC(=O)N[C@@H](CC(C)C)C(=O)N[C@@H](CC(C)C)C(=O)N[C@@H](CCCNC(=N)N)C(=O)c1nccs1 [Compound 18, Ac-LLR-kt]",–,4.6,506,56,–,EC50 [1]: 349 nM
"CC(C)C[C@H](NC(=O)[C@H]1O[C@@H]1C(=O)O)C(=O)NCCCCN=C(N)N [Compound E64, E64]",–,–,–,–,–,IC50 (Cathepsin B): 7.33 nM; IC50 (Cathepsin C): 1180 nM; IC50 (Cathepsin L): 12.4 nM; IC50 (Cathepsin S): 1.73 nM; IC50 (Cathepsin H): 35.6 nM; IC50 (Cathepsin V): 3.89 nM; IC50 (Papain): 0.24 nM; IC50 (Calpain 1): 47.1 nM
CCOC(=O)c1ccc(OC(=O)CCCCCN=C(N)N)cc1 [Gabexate mesylate],–,–,–,–,–,IC50 (Kallikrein 7): 43100 nM; IC50 (Tryptase g1): 13.3 nM; IC50 (FXa): 1860 nM; IC50 (Matriptase 2): 391 nM; IC50 (Plasmin): 265 nM; IC50 (Tryptase b2): 9.7 nM; IC50 (Thrombin a): 1570 nM; IC50 (Kallikrein 13): 12200 nM; IC50 (Trypsin): 30.7 nM; IC50 (Plasma Kallikrein): 148 nM; IC50 (Kallikrein 14): 651 nM; IC50 (Urokinase): 24.4 nM; IC50 (Kallikrein 5): 4940 nM; IC50 (Kallikrein 12): 94.3 nM
CC(=O)N[C@@H](CC(C)C)C(=O)N[C@@H](CC(C)C)C(=O)N[C@H](C=O)CCCNC(=N)N [Leupeptin],–,–,–,–,–,IC50 (Proteinase A): 244000 nM; IC50 (Kallikrein 1): 4610 nM
"N=C(N)c1ccc2cc(OC(=O)c3ccc(N=C(N)N)cc3)ccc2c1 [Nafamostat, reference compound]",5020,0.9,158,–,4570,IC50 (wild-type SARS-CoV-2): 220 nM
CCC(CC)COC(=O)[C@H](C)N[P@](=O)(OC[C@H]1O[C@@](C#N)(c2ccc3c(N)ncnn23)[C@H](O)[C@@H]1O)Oc1ccccc1 [Remdesivir],–,–,–,–,–,IC50 (wild-type SARS-CoV-2): 1270 nM
(MCA)-K-KARSAFA-K-(DnP),–,–,–,–,–,Km (TMPRSS2 protease domain): 0.6 ± 0.05 µM; kcat (TMPRSS2 protease domain): 0.07 s⁻¹
Cyclo(DMK)R-kbt [Compound 19],18500,5.9,3240,1,1390,EC50 [1]: 119 nM
Cyclo(DQK)R-kbt [Compound 20],> 20000,22,16100,7.7,> 20000,EC50 [1]: 138 nM
Cyclo(allylGLY)R-kbt [Compound 21],> 20000,20,> 20000,14,8810,EC50 [1]: 565 nM
